Data taken from the supplement of paper PMC11451515.

Experiments:
[1] = test system: SEM cells; experiment: cell viability relative to DMSO control; higher = less cytotoxic; settings: 48 h
In short: (§1)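 Viability, reported as a per-plate percentage of DMSO wells with cell-free wells as background, came from CellTiter-Glo One luminescence. Reading took place after 48 h at 37°C. Before that, NOMO1 or SEM (500 cells/well) or P12-Ichikawa (1000 cells/well) leukemia cells, adapted for at least four passages in each medium, were seeded in 1536-well plates (5 μl) and pin-dosed with library compounds in DMSO, 47 μM to 0.79 nM over 11 threefold points.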

[2] = test system: P12-Ichikawa; experiment: AUC of viability dose-response curve (% viability x log10 dose units); higher = less sensitive; settings: 48 h
In short: (§2)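 Leukemia cells adapted to each medium were seeded at 500 or 1000 cells/well in 1536-well plates and dosed with library compounds in DMSO at 11 threefold doses from 47 μM to 0.79 nM for 48 h at 37°C. CellTiter-Glo One luminescence was normalised per plate to DMSO and cell-free wells, then fitted with a four-parameter log-logistic model over log10 doses. Area under the curve was taken from this fit by the trapezoidal rule, with curves above full viability scaled and curves failing quality control removed.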

[3] = test system: NOMO1; experiment: as above; settings: 48 h
In short: as §2

[4] = test system: SEM cells; experiment: as above; settings: 48 h
In short: as §2

[5] = test system: NOMO1; experiment: cell viability relative to DMSO control; higher = less cytotoxic; settings: RPMI 5 mM glucose + 10% FBS, 48 h
In short: as §1

[6] = HPLM + 10% dialyzed FBS, 0.000781 µM
[7] = HPLM + 10% dialyzed FBS, 0.00234 µM
[8] = HPLM + 10% dialyzed FBS, 0.00702 µM
[9] = HPLM + 10% dialyzed FBS, 0.0211 µM
[10] = HPLM + 10% dialyzed FBS, 0.0632 µM
[11] = HPLM + 10% dialyzed FBS, 0.19 µM
[12] = HPLM + 10% dialyzed FBS, 0.569 µM
[13] = HPLM + 10% dialyzed FBS, 1.71 µM
[14] = HPLM + 10% dialyzed FBS, 5.12 µM
[15] = HPLM + 10% dialyzed FBS, 15.4 µM
[16] = HPLM + 10% dialyzed FBS, 46.1 µM
[17] = RPMI 5 mM glucose + 10% dialyzed FBS, 0.000781 µM
[18] = RPMI 5 mM glucose + 10% dialyzed FBS, 0.00234 µM
[19] = RPMI 5 mM glucose + 10% dialyzed FBS, 0.00702 µM
[20] = RPMI 5 mM glucose + 10% dialyzed FBS, 0.0211 µM
[21] = RPMI 5 mM glucose + 10% dialyzed FBS, 0.0632 µM
[22] = RPMI 5 mM glucose + 10% dialyzed FBS, 0.19 µM
[23] = RPMI 5 mM glucose + 10% dialyzed FBS, 0.569 µM
[24] = RPMI 5 mM glucose + 10% dialyzed FBS, 1.71 µM
[25] = RPMI 5 mM glucose + 10% dialyzed FBS, 5.12 µM
[26] = RPMI 5 mM glucose + 10% dialyzed FBS, 15.4 µM
[27] = RPMI 5 mM glucose + 10% dialyzed FBS, 46.1 µM
[28] = RPMI 5 mM glucose + 10% dialyzed FBS

Row | Compound | cell viability [1, 6] [%] | cell viability [1, 7] [%] | cell viability [1, 8] [%] | cell viability [1, 9] [%] | cell viability [1, 10] [%] | cell viability [1, 11] [%] | cell viability [1, 12] [%] | cell viability [1, 13] [%] | cell viability [1, 14] [%] | cell viability [1, 15] [%] | cell viability [1, 16] [%] | AUC of viability dose-response curve ([2]; HPLM + 10% dialyzed FBS) | AUC of viability dose-response curve ([2]; RPMI 5 mM glucose + 10% FBS) | AUC of viability dose-response curve [2, 28] | AUC of viability dose-response curve ([3]; HPLM + 10% dialyzed FBS) | AUC of viability dose-response curve ([3]; RPMI 5 mM glucose + 10% FBS) | AUC of viability dose-response curve [3, 28] | AUC of viability dose-response curve ([4]; HPLM + 10% dialyzed FBS) | AUC of viability dose-response curve ([4]; RPMI 5 mM glucose + 10% FBS) | AUC of viability dose-response curve [4, 28] | further results
1 | O=c1c(-c2ccc(O)cc2)coc2cc(O[C@@H]3O[C@H](CO)[C@@H](O)[C@H](O)[C@H]3O)ccc12 | 114 | 115 | 115 | 122 | 114 | 120 | 123 | 110 | 121 | 91.1 | 79.1 | 473 | 469 | 470 | 456 | 468 | 467 | 459 | 450 | 449 | cell viability [1, 17]: 124%; cell viability [1, 18]: 124%; cell viability [1, 19]: 128%; cell viability [1, 20]: 119%; cell viability [1, 21]: 135%; cell viability [1, 22]: 137%; cell viability [1, 23]: 126%; cell viability [1, 24]: 111%; cell viability [1, 25]: 118%; cell viability [1, 26]: 100%; cell viability [1, 27]: 70.1%
2 | CN(Cc1cnc2nc(N)nc(N)c2n1)c1ccc(C(=O)N[C@@H](CCC(=O)O)C(=O)O)cc1 | 115 | 141 | 122 | 133 | 119 | 53.5 | 43 | 37 | 25.7 | 18 | 15.2 | 245 | 277 | 258 | 304 | 390 | 278 | 277 | 328 | 249 | cell viability ([5]; 0.000781 µM): 116%; cell viability ([5]; 0.00234 µM): 125%; cell viability ([5]; 0.00702 µM): 123%; cell viability ([5]; 0.0211 µM): 135%; cell viability ([5]; 0.0632 µM): 121%; cell viability ([5]; 0.19 µM): 136%; cell viability ([5]; 0.569 µM): 107%; cell viability ([5]; 1.71 µM): 104%; cell viability ([5]; 5.12 µM): 73.1%; cell viability ([5]; 15.4 µM): 26.7%; cell viability ([5]; 46.1 µM): 24.4%
3 | C/C=C/C[C@@H](C)C(=O)[C@H]1C(=O)N[C@@H](C(C)C)C(=O)N(C)CC(=O)N(C)[C@@H](CC(C)C)C(=O)N[C@@H](C(C)C)C(=O)N(C)[C@@H](CC(C)C)C(=O)N[C@@H](C)C(=O)N[C@H](C)C(=O)N(C)[C@@H](CC(C)C)C(=O)N(C)[C@@H](CC(C)C)C(=O)N(C)[C@@H](C(C)C)C(=O)N1C | – | – | – | – | – | – | – | – | – | – | – | 424 | 413 | 411 | 441 | 466 | 461 | 427 | 406 | 424 | cell viability [1, 17]: 125%; cell viability [1, 18]: 125%; cell viability [1, 19]: 108%; cell viability [1, 20]: 151%; cell viability [1, 21]: 131%; cell viability [1, 22]: 120%; cell viability [1, 23]: 123%; cell viability [1, 24]: 108%; cell viability [1, 25]: 108%; cell viability [1, 26]: 71.6%; cell viability [1, 27]: 23.7%
4 | CCCNC(=O)[C@H]1O[C@@H]1C(=O)N[C@H](C(=O)N1CCC[C@H]1C(=O)OC)C(C)CC (stereo partly specified) | – | – | – | – | – | – | – | – | – | – | – | 446 | 416 | 424 | 444 | 421 | 449 | 439 | 420 | 433 | –
5 | NC1(c2ccc(-c3nc4ccn5c(=O)[nH]nc5c4cc3-c3ccccc3)cc2)CCC1 | 123 | 138 | 125 | 74.7 | 125 | 104 | 78.3 | 65.1 | 43.8 | 37.9 | 14.4 | 396 | 366 | 361 | 392 | 451 | 423 | 322 | 318 | 298 | –
